Patent publication US12421253B2 (Mirati Therapeutics, Inc., priority 2020, dated 2025)

What was measured:
KRas^WT = target: T1, KRas^WT (Homo sapiens, UniProt P01116); experiment: KRas binding assay (TR-FRET displacement of Cy5 labelled tracer)
T1 construct: […]; biotin (biotinylated); purchased Accelegan Inc

KRas^G12A = target: T2, KRas^G12A (Homo sapiens, UniProt P01116, G12A); experiment: as above
T2 construct: […]; biotin (biotinylated); purchased Accelegan Inc

KRas^G12D = target: T3, KRas^G12D (Homo sapiens, UniProt P01116, G12D); experiment: as above
T3 construct: […]; biotin (biotinylated); purchased Accelegan Inc
T3 sequence (P01116 1-169 isoform P01116-2 G12D): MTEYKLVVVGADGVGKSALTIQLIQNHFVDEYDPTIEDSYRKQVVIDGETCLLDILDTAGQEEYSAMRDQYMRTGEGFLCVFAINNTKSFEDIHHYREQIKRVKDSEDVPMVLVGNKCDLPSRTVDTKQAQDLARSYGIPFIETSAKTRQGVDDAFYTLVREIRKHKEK

KRas^G12R = target: T4, KRas^G12R (Homo sapiens, UniProt P01116, G12R); experiment: as above
T4 construct: […]; biotin (biotinylated); purchased Accelegan Inc
T4 sequence (P01116 1-169 isoform P01116-2 G12R): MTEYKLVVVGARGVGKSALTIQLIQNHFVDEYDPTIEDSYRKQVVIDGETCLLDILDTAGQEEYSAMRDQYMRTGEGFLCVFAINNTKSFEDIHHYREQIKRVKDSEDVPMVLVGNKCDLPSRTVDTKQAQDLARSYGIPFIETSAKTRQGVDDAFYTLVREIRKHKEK

KRas^G12S = target: T5, KRas^G12S (Homo sapiens, UniProt P01116, G12S); experiment: as above
T5 construct: […]; biotin (biotinylated); purchased Accelegan Inc
T5 sequence (P01116 1-169 isoform P01116-2 G12S): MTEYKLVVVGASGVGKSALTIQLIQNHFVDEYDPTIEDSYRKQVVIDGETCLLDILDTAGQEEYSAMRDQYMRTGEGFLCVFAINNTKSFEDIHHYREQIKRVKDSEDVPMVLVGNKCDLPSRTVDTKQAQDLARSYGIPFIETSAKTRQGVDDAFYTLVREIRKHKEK

KRas^G12V = target: T6, KRas^G12V (Homo sapiens, UniProt P01116, G12V); experiment: as above
T6 construct: […]; biotin (biotinylated); purchased Accelegan Inc
T6 sequence (P01116 1-169 isoform P01116-2 G12V): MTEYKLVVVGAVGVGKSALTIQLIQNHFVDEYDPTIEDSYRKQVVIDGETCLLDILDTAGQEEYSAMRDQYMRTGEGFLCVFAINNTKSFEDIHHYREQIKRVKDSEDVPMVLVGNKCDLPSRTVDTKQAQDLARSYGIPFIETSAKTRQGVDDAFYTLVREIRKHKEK

KRas^G12C = KRas^G12C (Homo sapiens, UniProt P01116, G12C); experiment: biochemical
Chain of KRas^G12C (P01116 1-169 isoform P01116-2 G12C): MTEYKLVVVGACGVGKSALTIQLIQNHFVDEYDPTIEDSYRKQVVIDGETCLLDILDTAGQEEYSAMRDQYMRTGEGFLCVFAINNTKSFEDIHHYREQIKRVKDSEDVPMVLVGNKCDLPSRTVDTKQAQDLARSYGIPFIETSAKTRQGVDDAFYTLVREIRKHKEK

KRas^G13D = KRas^G13D (Homo sapiens, UniProt P01116, G13D); experiment: biochemical
Chain of KRas^G13D (P01116 1-169 isoform P01116-2 G13D): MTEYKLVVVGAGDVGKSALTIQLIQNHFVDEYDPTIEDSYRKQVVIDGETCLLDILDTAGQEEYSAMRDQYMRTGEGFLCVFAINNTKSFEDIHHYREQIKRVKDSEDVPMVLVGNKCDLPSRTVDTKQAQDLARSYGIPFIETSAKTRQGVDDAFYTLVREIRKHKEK

KRas^Q61H = KRas^Q61H (Homo sapiens, UniProt P01116, Q61H); experiment: biochemical
Chain of KRas^Q61H (P01116 1-169 isoform P01116-2 Q61H): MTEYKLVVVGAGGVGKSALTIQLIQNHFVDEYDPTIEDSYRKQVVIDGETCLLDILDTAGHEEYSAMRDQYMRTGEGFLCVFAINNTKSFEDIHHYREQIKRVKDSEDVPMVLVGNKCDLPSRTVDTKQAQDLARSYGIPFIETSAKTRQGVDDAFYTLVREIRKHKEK

T1 sequence (P01116 1-169 isoform P01116-2): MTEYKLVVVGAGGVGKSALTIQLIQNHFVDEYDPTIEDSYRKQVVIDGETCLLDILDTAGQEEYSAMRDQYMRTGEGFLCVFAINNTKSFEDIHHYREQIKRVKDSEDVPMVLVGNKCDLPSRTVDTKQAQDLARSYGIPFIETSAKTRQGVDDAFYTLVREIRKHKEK
T2 sequence (P01116 1-169 isoform P01116-2 G12A): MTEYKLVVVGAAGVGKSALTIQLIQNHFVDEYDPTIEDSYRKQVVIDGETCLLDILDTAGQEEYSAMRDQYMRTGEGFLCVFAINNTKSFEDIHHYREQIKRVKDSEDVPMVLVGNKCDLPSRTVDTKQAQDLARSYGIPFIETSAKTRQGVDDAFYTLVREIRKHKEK

| IC50 (KRas^WT) [nM] | IC50 (KRas^G12A) [nM] | IC50 (KRas^G12D) [nM] | IC50 (KRas^G12R) [nM] | IC50 (KRas^G12S) [nM] | IC50 (KRas^G12V) [nM] | IC50 (KRas^G12C) [nM] | IC50 (KRas^G13D) [nM] | IC50 (KRas^Q61H) [nM] | Structure (SMILES) |
| --- | --- | --- | --- | --- | --- | --- | --- | --- | --- |
| 3610 | 4050 | 5400 | 4020 | 1160 | 3400 | 3560 | 3720 | 5330 | O=C1NC(=O)C2CN(c3nc(OCC45CCCN4CCC5)nc4c3CCN(c3cccc5cccc(F)c35)C4)CC12 (stereo not drawn) [Example 81, 5-(7-(8-fluoronaphthalen-1-yl)-2-((hexahydro-1H-pyrrolizin-7a-yl)methoxy)-5,6,7,8-tetrahydropyrido[3,4-d]pyrimidin-4-yl)tetrahydropyrrolo[3,4-c]pyrrole-1,3(2H,3aH)-dione] |
| 7510 | 8490 | 1260 | 11100 | 5680 | 6280 | 4980 | 10100 | 10600 | CCc1cccc2cccc(N3CCc4c(nc(OCC56CCCN5CCC6)nc4N4CCn5ncc(S(C)(=O)=O)c5C4)C3)c12 [Example 144, 7-(8-ethylnaphthalen-1-yl)-4-(3-(methylsulfonyl)-6,7-dihydropyrazolo[1,5-a]pyrazin-5(4H)-yl)-2-((tetrahydro-1H-pyrrolizin-7a(5H)-yl)methoxy)-5,6,7,8-tetrahydropyrido[3,4-d]pyrimidine] |
| 4730 | 5030 | 5530 | 1560 | 4870 | 2550 | 1950 | 5980 | 5160 | CCc1cccc2cccc(N3CCc4c(nc(OCC56CCCN5CCC6)nc4NC4CN(c5ccccn5)C4)C3)c12 [Example 150, 7-(8-ethylnaphthalen-1-yl)-N-(1-(pyridin-2-yl)azetidin-3-yl)-2-((tetrahydro-1H-pyrrolizin-7a(5H)-yl)methoxy)-5,6,7,8-tetrahydropyrido[3,4-d]pyrimidin-4-amine] |
| 83 | 206 | 929 | 311 | 240 | 427 | 190 | 139 | 189 | CCc1cccc2cccc(N3CCc4c(nc(OCC56CCCN5CCC6)nc4N4CCCC(N5CC(C)CS5(=O)=O)C4)C3)c12 (stereo not drawn) [Example 83, 2-(1-(7-(8-ethylnaphthalen-1-yl)-2-((tetrahydro-1H-pyrrolizin-7a(5H)-yl)methoxy)-5,6,7,8-tetrahydropyrido[3,4-d]pyrimidin-4-yl)piperidin-3-yl)-4-methylisothiazolidine 1,1-dioxide] |
| 232 | 303 | 532 | 279 | 342 | 295 | 348 | 247 | 325 | CCc1cccc2cccc(N3CCc4c(nc(OCC56CCCN5CCC6)nc4N4CCC(O)CC(C)C4)C3)c12 (stereo not drawn) [Example 92, 1-(7-(8-ethylnaphthalen-1-yl)-2-((tetrahydro-1H-pyrrolizin-7a(5H)-yl)methoxy)-5,6,7,8-tetrahydropyrido[3,4-d]pyrimidin-4-yl)-6-methylazepan-4-ol] |
| 1950 | 880 | 1800 | 558 | 917 | 948 | 652 | 1570 | 1490 | CCc1cccc2cccc(N3CCc4c(nc(OCC56CCCN5CCC6)nc4N4CCCC(c5cn(C)nn5)C4)C3)c12 (stereo not drawn) [Example 118, 7-(8-ethylnaphthalen-1-yl)-4-(3-(1-methyl-1H-1,2,3-triazol-4-yl)piperidin-1-yl)-2-((tetrahydro-1H-pyrrolizin-7a(5H)-yl)methoxy)-5,6,7,8-tetrahydropyrido[3,4-d]pyrimidine] |
| 1240 | 1250 | 3010 | 338 | 1250 | 958 | 1000 | 1560 | 1130 | CCc1cccc2cccc(N3CCc4c(nc(OCC56CCCN5CCC6)nc4N4CCCC(c5ccno5)C4)C3)c12 (stereo not drawn) [Example 99, 5-(1-(7-(8-ethylnaphthalen-1-yl)-2-((tetrahydro-1H-pyrrolizin-7a(5H)-yl)methoxy)-5,6,7,8-tetrahydropyrido[3,4-d]pyrimidin-4-yl)piperidin-3-yl)isoxazole] |
| 967 | 644 | 1050 | 836 | 797 | 564 | 811 | 735 | 778 | CCc1cccc2cccc(N3CCc4c(nc(OCC56CCCN5CCC6)nc4N4CCCCC(C)C4)C3)c12 (stereo not drawn) [Example 119] |

Further lines, the compound ahead of its results:

| Structure (SMILES) | IC50 (KRas^WT) [nM] | IC50 (KRas^G12A) [nM] | IC50 (KRas^G12D) [nM] | IC50 (KRas^G12R) [nM] | IC50 (KRas^G12S) [nM] | IC50 (KRas^G12V) [nM] | IC50 (KRas^G12C) [nM] | IC50 (KRas^G13D) [nM] | IC50 (KRas^Q61H) [nM] |
| --- | --- | --- | --- | --- | --- | --- | --- | --- | --- |
| CCc1cccc2cccc(N3CCc4c(nc(OCC56CCCN5CCC6)nc4N4CCCCCC4)C3)c12 [Example 49, 4-(azepan-1-yl)-7-(8-ethylnaphthalen-1-yl)-2-((hexahydro-1H-pyrrolizin-7a-yl)methoxy)-5,6,7,8-tetrahydropyrido[3,4-d]pyrimidine] | 579 | 317 | 465 | 167 | 364 | 184 | 273 | 662 | 703 |
| CCc1cccc2cccc(N3CCc4c(nc(OCC56CCCN5CCC6)nc4NCc4ccc5nncn5c4)C3)c12 [Example 39, N-([1,2,4]triazolo[4,3-a]pyridin-6-ylmethyl)-7-(8-ethylnaphthalen-1-yl)-2-((hexahydro-1H-pyrrolizin-7a-yl)methoxy)-5,6,7,8-tetrahydropyrido[3,4-d]pyrimidin-4-amine] | 1370 | 425 | 7110 | 239 | 592 | 221 | 317 | 1530 | 1640 |
| CCc1cccc2cccc(N3CCc4c(nc(OCC56CCCN5CCC6)nc4N4CCCC(O)(C(F)F)C4)C3)c12 (stereo not drawn) [Example 44, 3-(difluoromethyl)-1-(7-(8-ethylnaphthalen-1-yl)-2-((hexahydro-1H-pyrrolizin-7a-yl)methoxy)-5,6,7,8-tetrahydropyrido[3,4-d]pyrimidin-4-yl)piperidin-3-ol] | 191 | 202 | 162 | 308 | 202 | 200 | 232 | 163 | 226 |
| CCc1cccc2cccc(N3CCc4c(nc(OCC56CCCN5CCC6)nc4N4CCCn5nccc5C4)C3)c12 [Example 51, 4-(7,8-dihydro-4H-pyrazolo[1,5-a][1,4]diazepin-5(6H)-yl)-7-(8-ethylnaphthalen-1-yl)-2-((hexahydro-1H-pyrrolizin-7a-yl)methoxy)-5,6,7,8-tetrahydropyrido[3,4-d]pyrimidine] | 1370 | 1260 | 309 | 492 | 669 | 652 | 564 | 2030 | 1930 |
| CCc1cccc2cccc(N3CCc4c(nc(OCC56CCCN5CCC6)nc4N4CCCC5(CC(=O)N5)C4)C3)c12 (stereo not drawn) [Example 16, 6-(7-(8-ethylnaphthalen-1-yl)-2-((hexahydro-1H-pyrrolizin-7a-yl)methoxy)-5,6,7,8-tetrahydropyrido[3,4-d]pyrimidin-4-yl)-1,6-diazaspiro[3.5]nonan-2-one] | 66 | 45 | 63 | 28 | 45 | 18 | 37 | 65 | 55 |
